Experiment [1] deals with Mus musculus. In words: Ability to stimulate mice at dose of 8 mg/kg; Slight increase in spontaneous motor activity. In kind it is functional, organism-based. Also noted: dose 8 mg/kg.
For experiment [2], the species on record is Mus musculus. In words: Evaluated for the spontaneous motor activity in mice and the mean total activity (MTA) was reported; Expressed as counts/90 min/3 mice. Type of experiment: functional.
Experiment [3] is filed under the species Mus musculus. In words: Evaluated for the percentage blockade of activity in mice. Type of experiment: functional.
Experiment [4] concerns Rattus norvegicus. In words: Number of rats falling (3) within each stereotypy classification after intraperitoneal administration (110 uM/Kg); continuous sniffing, some head bobbing and weaving (total rats 4). In kind it is functional, organism-based.
For experiment [5], the system named is Rattus norvegicus. In words: Number of rats falling (1) within each stereotypy classification after intraperitoneal administration (110 uM/Kg); continuous sniffing, some arousal. In kind it is functional, organism-based.
Experiment [6] concerns Rattus norvegicus. In words: Number of rats falling (4) within each stereotypy classification after intraperitoneal administration (110 uM/Kg); continuous sniffing, with repetitive sequences of head and limb movements, as well as some licking and rearing (total rats 4). In kind it is functional, organism-based.

Each structure is given as a SMILES string. Active and inactive are the calls of the source. The rule behind the calls is not given here.

For `NC1CCc2ccccc2C1` (stereo not given), the outcome in experiment [1] was Active.
The compound `COC(=O)C(C)(N)Cc1ccc(O)cc1.NC1C=Cc2ccccc2C1` (stereo not given) registered an MTA in experiment [2] of 3491. This compound had a Block of activity in experiment [3] of 59.3%.
In the same order, the values of `CC(N)Cc1ccccc1.COC(=O)C(C)(N)Cc1ccc(O)cc1` (stereo not given) are 5144 and 64.2%.
As for `COC(=O)[C@H]1[C@H]2C[C@@H]3c4[nH]c5cc(OC)ccc5c4CCN3C[C@H]2C[C@@H](OC(=O)c2cc(OC)c(OC)c(OC)c2)[C@@H]1OC.Cl.NC1C=Cc2ccccc2C1` (racemic), the Activity result in experiment [4] is listed as “continuous sniffing, some arousal”; in experiment [5], “continuous sniffing, some arousal”.
As for `C[C@H](N)Cc1ccccc1` [DEXTROAMPHETAMINE], the MTA in experiment [2] was determined as 14356.
On to `NC1C=Cc2ccccc2C1` (racemic), for which the Activity entry in experiment [6] is “continuous sniffing, with repetitive sequences of head and limb movements, as well as some licking and rearing (total rats 4)”.
For `Cl.NC1C=Cc2ccccc2C1` (single isomer, unassigned; (-)), the MTA in experiment [2] was 8566.

(Values after ChEMBL document CHEMBL1122053, “A new, potent, conformationally restricted analogue of amphetamine: 2-amino-1,2-dihydronaphthalene” (1982).)
